Measurements reported in patent publication US20150141435A1, “2-PYRIDONE ANTIMICROBIAL COMPOSITIONS” (Emergent BioSolutions, priority 2010, published 2015).
Converted amounts (≈) assume the structure as drawn. Where a name gives a salt, the structure may show the parent alone. Read-outs that look alike come from different tables or passages of the source.

Tested on: bacterial pathogens resistant against quinolones antibiotics
Test: MIC against quinolone-resistant bacterial pathogens (Table 5)
Type: cell-based
[1] = Enterococcus faecalis, read-out: MICs, Enterococcus faecalis vancomycin-resistant (VanB) clinical isolate, GP14
[2] = Enterococcus faecium, read-out: MICs, Enterococcus faecium vancomycin-resistant (VanA) clinical isolate, GP17
[3] = Escherichia coli, GN03, read-out: MICs, Escherichia coli multi-drug resistant clinical isolate, GN03
[4] = Providencia stuartii, GN24, read-out: MICs, Providencia stuartii multi-drug resistant clinical isolate, GN24
[5] = Pseudomonas aeruginosa, GN64, read-out: MICs, Pseudomonas aeruginosa levofloxacin-resistant clinical isolate, GN64
[6] = Staphylococcus aureus, MRSA, read-out: MICs, EMRSA16 Staphylococcus aureus (MRSA) SSCmec type 2, GP33
[7] = Staphylococcus aureus, read-out: MICs, Staphylococcus aureus levofloxacin-resistant clinical isolate, amino acid changes GrlA, GrlB & GyrA, GP82
[8] = Staphylococcus aureus, read-out: MICs, Staphylococcus aureus multi-drug-resistant clinical isolate, GP5
[9] = Streptococcus pneumoniae, read-out: MICs, Streptococcus pneumoniae multi-drug resistant clinical isolate, GP24
[10] = read-out: MICs, Acinetobacter haumannii levofloxacin-resistant clinical isolate, GN54

Row | Structure (SMILES) | MIC [1] [µg/mL] | MIC [2] [µg/mL] | MIC [3] [µg/mL] | MIC [4] [µg/mL] | MIC [5] [µg/mL] | MIC [6] [µg/mL] | MIC [7] [µg/mL] | MIC [8] [µg/mL] | MIC [9] [µg/mL] | MIC [10] [µg/mL] | MIC (Acinetobacter haumannii levofloxacin-resistant clinical isolate, GN54, read-out: MICs) [µg/mL] | MIC (EMRSA16 Staphylococcus aureus (MRSA) SSCmec type 2, GP33, read-out: MICs) [µg/mL] | MIC (Enterococcus faecalis vancomycin-resistant (VanB) clinical isolate, GP14, read-out: MICs) [µg/mL] | MIC (Enterococcus faecium vancomycin-resistant (VanA) clinical isolate, GP17, read-out: MICs) [µg/mL] | MIC (Escherichia coli multi-drug resistant clinical isolate, GN03, read-out: MICs) [µg/mL] | MIC (Providencia stuartii multi-drug resistant clinical isolate, GN24, read-out: MICs) [µg/mL] | MIC (Pseudomonas aeruginosa levofloxacin-resistant clinical isolate, GN64, read-out: MICs) [µg/mL] | MIC (Staphylococcus aureus multi-drug-resistant clinical isolate, GP5, read-out: MICs) [µg/mL] | MIC (Streptococcus pneumoniae multi-drug resistant clinical isolate, GP24, read-out: MICs) [µg/mL]
1 | Cc1c(-c2cc(F)c(N)cc2F)ccn2c(=O)c(C(=O)O)cc(C3CC3)c12 [Example 28 K salt, 8-(4-amino-2,5-difluoro-phenyl)-1-cyclopropyl-9-methyl-4-oxo-4H-quinolizine-3-carboxylic acid] | 0.25 | 1 | 16 | 1 | 4 | 0.06 | 0.03 | 0.06 | 0.06 | 2 | – | – | – | – | – | – | – | – | –
2 | Cc1c(-c2ccc(N)nc2)ccn2c(=O)c(C(=O)O)cc(C3CC3)c12 [Example 21 K salt, 8-(6-amino-pyridin-3-yl)-1-cyclopropyl-9-methyl-4-oxo-4H-quinolizine-3-carboxylic acid] | 1 | 4 | 16 | 2 | 4 | 0.25 | 0.12 | 0.25 | 0.12 | 4 | – | – | – | – | – | – | – | – | –
3 | Cc1c(-c2ccc(O)cc2)ccn2c(=O)c(C(=O)O)cc(C3CC3)c12 [Example 46 K salt, 1-cyclopropyl-8-(4-hydroxy-phenyl)-9-methyl-4-oxo-4H-quinolizine-3-carboxylic acid] | 0.5 | 1 | 8 | 2 | 4 | 0.06 | 0.03 | 0.06 | 0.12 | 2 | – | – | – | – | – | – | – | – | –
4 | Cc1c(-c2ccc3[nH]ncc3c2)ccn2c(=O)c(C(=O)O)cc(C3CC3)c12 [Example 23 K salt, 1-cyclopropyl-8-(1H-indazol-5-yl)-9-methyl-4-oxo-4H-quinolizine-3-carboxylic acid] | 0.25 | 0.5 | 4 | 1 | 2 | 0.03 | – | 0.03 | 0.03 | 1 | – | – | – | – | – | – | – | – | –
5 | Cc1c(-c2ccc(N)c(F)c2)ccn2c(=O)c(C(=O)O)cc(C3CC3)c12 [Example 2 K salt, 8-(4-amino-3-fluoro-phenyl)-1-cyclopropyl-9-methyl-4-oxo-4H-quinolizine-3-carboxylic acid] | 0.5 | 2 | – | 1 | 2 | 0.12 | 0.06 | 0.06 | 0.12 | 2 | – | – | – | – | – | – | – | – | –
6 | C[C@H]1COc2c(N3CCN(C)CC3)c(F)cc3c(=O)c(C(=O)O)cn1c23 [Levofloxacin] | – | – | – | – | – | – | 8 (≈ 22.1 µM) | – | – | – | ≥ 16 | ≥ 16 | ≥ 16 | ≥ 16 | ≥ 16 | ≥ 16 | ≥ 16 | ≥ 16 | 2 (≈ 5.53 µM)
